Laboratory results published in PubChem BioAssay AID330 (DTP/NCI, 2004).
Several values for one entry are separate records, joined by “and”; a condition that tells them apart may be missing. Equal values may be shown once. Inconclusive results and toxic doses are left out. Square brackets hold non-standard residues; d marks the D form. Peptide text beside a SMILES is read from it. ξ: configuration not given here. ξD = NC(CC(=O)O)C(=O)O

System: P388 leukemia ip, CD2F1 mice, survival T/C
Test: NCI In Vivo Anticancer Drug Screen. Data for tumor model P388 Leukemia (intraperitoneal) in CD2F1 (CDF1) mice
Settings: endpoint: median survival time, higher = longer survival
Procedure, shortened: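 Mice carrying the transplanted tumor received test compound or vehicle. Survival was recorded in each group, and the value is the treated-group measurement divided by that of the vehicle-treated control group.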

[1] = dose: 100.0 mg/kg/injection, schedule: Q04DX003 (ip), vehicle: saline with Tween-80
[2] = dose: 200.0 mg/kg/injection, schedule: Q04DX003 (ip), vehicle: saline with Tween-80
[3] = dose: 400.0 mg/kg/injection, schedule: Q04DX003 (ip), vehicle: saline with Tween-80
[4] = dose: 50.0 mg/kg/injection, schedule: Q04DX003 (ip), vehicle: saline with Tween-80
[5] = dose: 1.25 mg/kg/injection, schedule: Q01DX009 (ip), vehicle: saline with Tween-80
[6] = dose: 2.5 mg/kg/injection, schedule: Q01DX009 (ip), vehicle: saline with Tween-80
[7] = dose: 5.0 mg/kg/injection, schedule: Q01DX009 (ip), vehicle: saline with Tween-80
[8] = dose: 10.0 mg/kg/injection, schedule: Q01DX009 (ip), vehicle: saline with Tween-80
[9] = dose: 20.0 mg/kg/injection, schedule: Q01DX009 (ip), vehicle: saline with Tween-80
[10] = dose: 40.0 mg/kg/injection, schedule: Q01DX009 (ip), vehicle: saline with Tween-80
[11] = dose: 50.0 mg/kg/injection, schedule: Q04DX003 (ip), vehicle: Klucel (hydroxypropylcellulose) (HPC)
[12] = dose: 12.5 mg/kg/injection, schedule: Q01DX009 (ip), vehicle: saline with Tween-80
[13] = dose: 25.0 mg/kg/injection, schedule: Q01DX009 (ip), vehicle: saline with Tween-80
[14] = dose: 50.0 mg/kg/injection, schedule: Q01DX009 (ip), vehicle: saline with Tween-80
[15] = dose: 100.0 mg/kg/injection, schedule: Q01DX009 (ip), vehicle: saline with Tween-80
[16] = dose: 60.0 mg/kg/injection, schedule: Q01DX005 (ip), vehicle: saline with Tween-80
[17] = dose: 120.0 mg/kg/injection, schedule: Q01DX005 (ip), vehicle: saline with Tween-80
[18] = dose: 240.0 mg/kg/injection, schedule: Q01DX005 (ip), vehicle: saline with Tween-80
[19] = dose: 50.0 mg/kg/injection, schedule: Q01DX005 (ip), vehicle: saline with Tween-80
[20] = dose: 100.0 mg/kg/injection, schedule: Q01DX005 (ip), vehicle: saline with Tween-80
[21] = dose: 200.0 mg/kg/injection, schedule: Q01DX005 (ip), vehicle: saline with Tween-80
[22] = dose: 50.0 mg/kg/injection, schedule: Q01DX005 (ip), vehicle: Klucel (hydroxypropylcellulose) (HPC)
[23] = dose: 100.0 mg/kg/injection, schedule: Q01DX005 (ip), vehicle: Klucel (hydroxypropylcellulose) (HPC)
[24] = dose: 200.0 mg/kg/injection, schedule: Q01DX005 (ip), vehicle: Klucel (hydroxypropylcellulose) (HPC)
[25] = dose: 200.0 mg/kg/injection, schedule: Q01DX009 (ip), vehicle: saline with Tween-80

`C=C1COC(O)(C(OC)C(O)CC2CC(=O)NC(=O)C2)C1C` (centres undefined) was tested, and the T/C (dose: 0.01 mg/kg/injection, schedule: Q01DX009 (ip), vehicle: water) was 105 % of control, the T/C (dose: 0.03 mg/kg/injection, schedule: Q01DX009 (ip), vehicle: water) was 104 % of control and the T/C (dose: 0.06 mg/kg/injection, schedule: Q01DX009 (ip), vehicle: water) was 111 % of control. The T/C (dose: 0.12 mg/kg/injection, schedule: Q01DX009 (ip), vehicle: water) was 117 % of control.
`COc1ccccc1N1C(=O)CC(Sc2ccccc2N)C1=O` (centres undefined) was tested, and the T/C [1] was 104 % of control, the T/C [2] was 90 % of control and the T/C [3] was 90 % of control.
`CC(C)c1ccc(C(O)C2CC2)cc1` (centres undefined) was tested, and the T/C [4] was 109 % of control and the T/C [1] was 95 % of control.
In the case of `NCC(=O)NC(CC(=O)O)C(=O)O` (centres undefined) (H-Gly-[ξD]-OH), the T/C [1] was 100 % of control, the T/C [2] was 93 % of control and the T/C [3] was 94 % of control.
For `CC1(C)CC(=O)C=C(NCCCCCCCCNC2=CC(=O)CC(C)(C)C2)C1`, the T/C (dose: 50.0 mg/kg/injection, schedule: Q01DX009 (ip), vehicle: Klucel (hydroxypropylcellulose) (HPC)) was 95 % of control, the T/C (dose: 100.0 mg/kg/injection, schedule: Q01DX009 (ip), vehicle: Klucel (hydroxypropylcellulose) (HPC)) was 106 % of control and the T/C (dose: 200.0 mg/kg/injection, schedule: Q01DX009 (ip), vehicle: Klucel (hydroxypropylcellulose) (HPC)) was 100 % of control.
In the case of `CCC[CH2][Pb]([Cl])([CH2]CCC)[CH2]CCC`, the T/C [5] was 99 % of control, the T/C [6] was 99 % of control and the T/C [7] was 107 % of control. The T/C [8] was 103 % of control.
In the case of `Nc1ccc(Cn2ccc3c4c(N)nc(N)nc4ccc32)cc1`, the T/C [5] was 106 % of control and 117 % of control, the T/C [6] was 110 % of control and 111 % of control and 112 % of control and the T/C [7] was 121 % of control. For the same compound, the T/C [8] was 151 % of control and 186 % of control, the T/C [9] was 182 % of control and the T/C [10] was 105 % of control.
In the case of `CN(C)N=Nc1cn[nH]c1C(N)=O`, the T/C [11] was 109 % of control and the T/C (dose: 200.0 mg/kg/injection, schedule: Q04DX003 (ip), vehicle: Klucel (hydroxypropylcellulose) (HPC)) was 161 % of control and 163 % of control.
With `Nc1nc(Cl)c(C=O)c(Cl)n1` the T/C [12] was 96 % of control, the T/C [13] was 100 % of control and 119 % of control and the T/C [14] was 100 % of control and 120 % of control. For the same compound, the T/C [15] was 115 % of control.
For `O=c1cc(-c2ccccc2)[nH]c(=O)[nH]1`, the T/C (dose: 25.0 mg/kg/injection, schedule: Q04DX003 (ip), vehicle: saline with Tween-80) was 99 % of control, the T/C [4] was 101 % of control and the T/C [1] was 107 % of control.
In the case of `COc1cc(CC2COCC2Cc2ccc3c(c2)OCO3)cc(OC)c1OC` (centres undefined), the T/C (dose: 1.25 mg/kg/injection, schedule: Q04DX002 (ip), vehicle: acetone) was 101 % of control and 103 % of control, the T/C (dose: 2.5 mg/kg/injection, schedule: Q04DX002 (ip), vehicle: acetone) was 101 % of control and 96 % of control and 104 % of control and the T/C (dose: 5.0 mg/kg/injection, schedule: Q04DX002 (ip), vehicle: acetone) was 93 % of control and 96 % of control and 103 % of control.
For `Cc1nc(N)[nH]c(=O)c1CCCNC(=O)c1cccc([N+](=O)[O-])c1`, the T/C [16] was 94 % of control, the T/C [17] was 100 % of control and the T/C [18] was 103 % of control.
`O=C1c2ccccc2C2CNC1(O)c1ccccc12` (centres undefined) was tested, and the T/C [19] was 97 % of control, the T/C [20] was 97 % of control and the T/C [21] was 102 % of control.
For `O=P(c1ccccc1)(c1ccccc1)c1ccccc1OCCCO`, the T/C [22] was 99 % of control, the T/C [23] was 100 % of control and the T/C [24] was 97 % of control.
`COc1cc(C2CC(C)(OC)Oc3cc4c(cc32)OCO4)cc(OC)c1OC` (centres undefined) was tested, and the T/C [16] was 106 % of control and 90 % of control and 95 % of control and the T/C [17] was 109 % of control and 95 % of control and 97 % of control.
With `COc1ccc(C(=O)c2coc3cc4c(cc23)OCO4)c(O)c1` the T/C (dose: 50.0 mg/kg/injection, schedule: Q01DX001 (ip), vehicle: Klucel (hydroxypropylcellulose) (HPC)) was 88 % of control, the T/C (dose: 100.0 mg/kg/injection, schedule: Q01DX001 (ip), vehicle: Klucel (hydroxypropylcellulose) (HPC)) was 88 % of control and the T/C (dose: 200.0 mg/kg/injection, schedule: Q01DX001 (ip), vehicle: Klucel (hydroxypropylcellulose) (HPC)) was 88 % of control.
For `COc1ccc(N2C(=O)C3CSCN3C2=O)cc1` (centres undefined), the T/C [16] was 100 % of control, the T/C [17] was 94 % of control and the T/C [18] was 92 % of control.
`CCCCCCCCCCCCCCCCCC(=O)CC(=O)C(F)(F)F` was tested, and the T/C (dose: 50.0 mg/kg/injection, schedule: Q01DX009 (ip), vehicle: saline) was 100 % of control, the T/C (dose: 100.0 mg/kg/injection, schedule: Q01DX009 (ip), vehicle: saline) was 99 % of control and the T/C (dose: 200.0 mg/kg/injection, schedule: Q01DX009 (ip), vehicle: saline) was 99 % of control.
`CNC(=O)c1ccccc1CC1(O)c2ccccc2Oc2ccccc21` was tested, and the T/C [22] was 100 % of control, the T/C [23] was 99 % of control and the T/C [24] was 96 % of control.
With `Nc1ccc2cc3ccccc3cc2c1` the T/C [7] was 95 % of control, the T/C (dose: 5.0 mg/kg/injection, schedule: Q04DX003 (ip), vehicle: saline with Tween-80) was 95 % of control and the T/C [8] was 104 % of control. For the same compound, the T/C (dose: 10.0 mg/kg/injection, schedule: Q04DX003 (ip), vehicle: saline with Tween-80) was 91 % of control, the T/C [12] was 100 % of control and the T/C [9] was 118 % of control. For the same compound, the T/C (dose: 20.0 mg/kg/injection, schedule: Q04DX003 (ip), vehicle: saline with Tween-80) was 112 % of control, the T/C [13] was 109 % of control and the T/C [10] was 118 % of control. The T/C (dose: 40.0 mg/kg/injection, schedule: Q04DX003 (ip), vehicle: saline with Tween-80) was 112 % of control and the T/C [14] was 109 % of control.
For `CC(NC(=O)OCc1ccccc1)C(=O)NC(Cc1c[nH]c2ccccc12)C(=O)O` (centres undefined), the T/C [22] was 99 % of control, the T/C [23] was 97 % of control and the T/C [24] was 95 % of control.
For `CN1C(=O)N(C)C2(C(=O)c3cccc4cccc2c34)C1=O` (centres undefined), the T/C (dose: 50.0 mg/kg/injection, schedule: Q01DX009 (ip), vehicle: distilled water + alcohol) was 100 % of control, the T/C (dose: 100.0 mg/kg/injection, schedule: Q01DX009 (ip), vehicle: distilled water + alcohol) was 94 % of control and the T/C (dose: 200.0 mg/kg/injection, schedule: Q01DX009 (ip), vehicle: distilled water + alcohol) was 100 % of control.
In the case of `CC(=O)CC(=O)Cc1oc2c(C(C)=O)c(O)c(C)c(O)c2c1C`, the T/C [13] was 90 % of control, the T/C [14] was 90 % of control and the T/C [15] was 88 % of control. The T/C [25] was 90 % of control.
In the case of `CCCCCCC(O)CCCCCCCCCCC(=O)O` (centres undefined), the T/C [1] was 109 % of control, the T/C [2] was 100 % of control and the T/C [3] was 104 % of control.
In the case of `COc1ccc(/C=N/NC(=O)CNC(=O)Nc2n[nH]c(=S)s2)cc1`, the T/C [22] was 100 % of control, the T/C [23] was 104 % of control and the T/C [24] was 100 % of control.
In the case of `C1CCN(CCC[Si]23OCCN(CCO2)CCO3)CC1`, the T/C [19] was 102 % of control, the T/C [20] was 108 % of control and the T/C [21] was 106 % of control.
With `COC(=O)C1=NNc2ccccc2C(OC(C)=O)C1C` (centres undefined) the T/C (dose: 100.0 mg/kg/injection, schedule: Q01DX001 (ip), vehicle: saline with Tween-80) was 90 % of control, the T/C (dose: 200.0 mg/kg/injection, schedule: Q01DX001 (ip), vehicle: saline with Tween-80) was 96 % of control and the T/C (dose: 400.0 mg/kg/injection, schedule: Q01DX001 (ip), vehicle: saline with Tween-80) was 97 % of control.
In the case of `CCSc1n[nH]c(C2CCC(=O)N2Cc2ccccc2)n1` (centres undefined), the T/C [19] was 103 % of control, the T/C [20] was 104 % of control and the T/C [21] was 102 % of control.
With `O=C1/C(=C\c2ccc([N+](=O)[O-])cc2)CS(=O)(=O)C/C1=C/c1ccc([N+](=O)[O-])cc1` the T/C [13] was 95 % of control, the T/C [14] was 94 % of control and the T/C [15] was 105 % of control. The T/C [25] was 116 % of control.
For `O=C1CC(c2ccccc2)C(c2ccccc2)CO1` (centres undefined), the T/C (dose: 25.0 mg/kg/injection, schedule: Q04DX003 (ip), vehicle: Klucel (hydroxypropylcellulose) (HPC)) was 91 % of control, the T/C [11] was 92 % of control and the T/C (dose: 100.0 mg/kg/injection, schedule: Q04DX003 (ip), vehicle: Klucel (hydroxypropylcellulose) (HPC)) was 88 % of control and 92 % of control. The T/C (dose: 400.0 mg/kg/injection, schedule: Q04DX003 (ip), vehicle: Klucel (hydroxypropylcellulose) (HPC)) was 87 % of control.
